Experimental findings from ChEMBL document CHEMBL3232991, “New polyfunctional imidazo[4,5-C]pyridine motifs: synthesis, crystal studies, docking studies and antimicrobial evaluation” (Eur J Med Chem, 2014) are described below.

As usually defined, the IC50 is the concentration that inhibits the measured activity by half. As usually defined, the MIC is the lowest concentration that inhibits growth of the organism.

The test system of experiment [1] is Saccharomyces cerevisiae. Briefly: Antifungal activity against Saccharomyces cerevisiae NCIM 3044 assessed as diameter of growth inhibition zone at 10 ug/ml after 4 days by agar disc diffusion method. Format: functional. For orientation: A growth-free zone around the sample is the usual read-out of agar diffusion tests.
For experiment [2], the system named is Escherichia coli. The experiment can be described thus: Antibacterial activity against Escherichia coli NCIM 2931 assessed as diameter of growth inhibition zone at 10 ug/ml after 20 hrs by agar disc diffusion method. Format: functional.
Experiment [3] has as its system Staphylococcus aureus. Briefly: Antibacterial activity against Staphylococcus aureus MTCC 4102 assessed as diameter of growth inhibition zone at 10 ug/ml after 20 hrs by agar disc diffusion method. The class given is functional.
Experiment [4] has as its system Bacillus cereus. Briefly: Antibacterial activity against Bacillus cereus NCIM 2155 assessed as diameter of growth inhibition zone at 10 ug/ml after 20 hrs by agar disc diffusion method. The class given is functional.
Experiment [5] has as its system Pseudomonas aeruginosa. The experiment can be described thus: Antibacterial activity against Pseudomonas aeruginosa MTCC 4727 assessed as diameter of growth inhibition zone at 10 ug/ml after 20 hrs by agar disc diffusion method. The class given is functional.
For experiment [6], the system named is Candida albicans. Briefly: Antifungal activity against Candida albicans MTCC 183 assessed as diameter of growth inhibition zone at 10 ug/ml after 4 days by agar disc diffusion method. Format: functional.
Experiment [7] deals with Escherichia coli. The experiment can be described thus: Antibacterial activity against Escherichia coli NCIM 2931 assessed as growth inhibition after 24 hrs by broth microdilution method. Format: functional, organism-based. The conditions noted are these: NCIM 2931, 24 h. On the technique in general: Broth dilution looks for growth in wells or tubes with falling amounts of substance.

The test system of experiment [8] is Staphylococcus aureus. The experiment can be described thus: Antibacterial activity against Staphylococcus aureus MTCC 4102 assessed as diameter of growth inhibition zone at 1000 ug/ml after 20 hrs by agar disc diffusion method. Format: functional.
In experiment [9] the test system is Saccharomyces cerevisiae. Briefly: Antifungal activity against Saccharomyces cerevisiae NCIM 3044 assessed as growth inhibition after 48 hrs by broth microdilution method. Format: functional, organism-based. As to conditions: NCIM 3044, 48 h.
Experiment [10] relates to Pseudomonas aeruginosa. Briefly: Antibacterial activity against Pseudomonas aeruginosa MTCC 4727 assessed as diameter of growth inhibition zone at 500 ug/ml after 20 hrs by agar disc diffusion method. Format: functional.
In experiment [11] the test system is Escherichia coli. The experiment can be described thus: Antibacterial activity against Escherichia coli NCIM 2931 assessed as diameter of growth inhibition zone at 500 ug/ml after 20 hrs by agar disc diffusion method. As to conditions: NCIM 2931, 20 h, read-out: DIZ. The class given is functional.
Experiment [12] concerns Candida albicans. Briefly: Antifungal activity against Candida albicans MTCC 183 assessed as diameter of growth inhibition zone at 500 ug/ml after 4 days by agar disc diffusion method. The class given is functional.
In experiment [13] the test system is Pseudomonas aeruginosa. Briefly: Antibacterial activity against Pseudomonas aeruginosa MTCC 4727 assessed as diameter of growth inhibition zone at 1000 ug/ml after 20 hrs by agar disc diffusion method. Format: functional.
Experiment [14] concerns Escherichia coli. Briefly: Antibacterial activity against Escherichia coli NCIM 2931 assessed as diameter of growth inhibition zone at 1000 ug/ml after 20 hrs by agar disc diffusion method. The class given is functional. As to conditions: NCIM 2931, 20 h, read-out: DIZ.
Experiment [15] deals with Saccharomyces cerevisiae. The experiment can be described thus: Antifungal activity against Saccharomyces cerevisiae NCIM 3044 assessed as diameter of growth inhibition zone at 500 ug/ml after 4 days by agar disc diffusion method. Format: functional.
The subject of experiment [16] is Candida albicans. Briefly: Antifungal activity against Candida albicans MTCC 183 assessed as diameter of growth inhibition zone at 1000 ug/ml after 4 days by agar disc diffusion method. The class given is functional.
Experiment [17] has as its system Bacillus cereus. The experiment can be described thus: Antibacterial activity against Bacillus cereus NCIM 2155 assessed as diameter of growth inhibition zone at 1000 ug/ml after 20 hrs by agar disc diffusion method. The class given is functional.
The subject of experiment [18] is Staphylococcus aureus. The experiment can be described thus: Antibacterial activity against Staphylococcus aureus MTCC 4102 assessed as diameter of growth inhibition zone at 500 ug/ml after 20 hrs by agar disc diffusion method. The class given is functional.
Experiment [19] deals with Bacillus cereus. Briefly: Antibacterial activity against Bacillus cereus NCIM 2155 assessed as diameter of growth inhibition zone at 500 ug/ml after 20 hrs by agar disc diffusion method. Format: functional.
The subject of experiment [20] is Saccharomyces cerevisiae. Briefly: Antifungal activity against Saccharomyces cerevisiae NCIM 3044 assessed as diameter of growth inhibition zone at 1000 ug/ml after 4 days by agar disc diffusion method. Format: functional.
Experiment [21] concerns Staphylococcus aureus. Briefly: Antibacterial activity against Staphylococcus aureus MTCC 4102 assessed as growth inhibition after 24 hrs by broth microdilution method. Format: functional, organism-based. As to conditions: MTCC 4102, 24 h.

Values after ≈ are worked out from the molar mass of the structure shown. Active and inactive are the calls of the source. No cut-off for these calls is given here.

With `OC(Cn1cncn1)(Cn1cncn1)c1ccc(F)cc1F` [FLUCONAZOLE], the zone of inhibition at 10 µg/mL in experiment [1] (NCIM 3044, 96 h, read-out: DIZ) is 24 mm; in experiment [6] (MTCC 183, 96 h, read-out: DIZ) it was 25 mm. Besides, the “diameter of the inhibition zone (DIZ)” value in [2], in experiment [3], in experiment [4] and in [5] was “inactive” throughout.
`CN[C@@H]1[C@H](O[C@H]2[C@H](O[C@H]3[C@H](O)[C@@H](O)[C@H](N=C(N)N)[C@@H](O)[C@@H]3N=C(N)N)O[C@@H](C)[C@]2(O)C=O)O[C@@H](CO)[C@H](O)[C@H]1O` [STREPTOMYCIN]: the “diameter of the inhibition zone (DIZ)” value in experiment [1] and in experiment [6] was “inactive” throughout. Moreover, the zone of inhibition at 10 µg/mL was found to be 21.4 mm in experiment [2] (NCIM 2931, 20 h, read-out: DIZ); 23.8 mm in [3] (MTCC 4102, 20 h, read-out: DIZ); 20.2 mm in experiment [4] (NCIM 2155, 20 h, read-out: DIZ); 20.9 mm in experiment [5] (MTCC 4727, 20 h, read-out: DIZ).
For `N#CC1CCCN(c2ncc(-c3cccc(F)c3)c3[nH]c(-c4ccco4)nc23)C1` (configuration not stated), the IC50 stood at 74.5 µg/mL (≈ 192 µM) in [7] and 98.8 µg/mL (≈ 255 µM) in experiment [9]. Moreover, the figures for the MIC in experiment [7] and in experiment [9] were 198 µg/mL (≈ 510 µM) and 296 µg/mL (≈ 765 µM), respectively. Besides, the “diameter of the inhibition zone (DIZ)” value in [8], in [10], in experiment [12], in experiment [13], in experiment [16] and in experiment [17] was “inactive” throughout. Further, the “diameter of the inhibition zone (DIZ)” value in experiment [18] and in experiment [19] was “inactive” in each case. For the same compound, the zone of inhibition at 500 µg/mL in [11] is 8 mm; in experiment [15] (NCIM 3044, 96 h, read-out: DIZ) it was 6.9 mm. Besides, the zone of inhibition at 1000 µg/mL in [14] worked out at 16 mm; in experiment [20] (NCIM 3044, 96 h, read-out: DIZ), 15 mm.
With `COc1cc(-c2cnc(N3CCC(C#N)CC3)c3nc(Cc4ccc(Cl)cc4Cl)[nH]c23)ccc1F`, the zone of inhibition at 1000 µg/mL in experiment [8] (MTCC 4102, 20 h, read-out: DIZ) came to 23 mm; in experiment [13] (MTCC 4727, 20 h, read-out: DIZ), 8 mm; in experiment [14], 9 mm. In addition, the zone of inhibition at 500 µg/mL in [10] (MTCC 4727, 20 h, read-out: DIZ) came to 3.5 mm; in experiment [11], 4.1 mm; in experiment [18] (MTCC 4102, 20 h, read-out: DIZ), 10.5 mm. Also, the “diameter of the inhibition zone (DIZ)” value in experiment [12], in experiment [15], in experiment [16], in [17], in experiment [19] and in [20] was “inactive” throughout. In [21], the IC50 worked out at 100 µg/mL (≈ 196 µM). Besides, in [21], the MIC came out at 200 µg/mL (≈ 392 µM).
